From ChEMBL document CHEMBL1142389, “New insights into the first oxidative phenol coupling reaction during vancomycin biosynthesis” (Bioorg Med Chem Lett, 2008)

Molecular target: T1, Cytochrome P450 165B3 (Amycolatopsis orientalis, UniProt Q8RN04)
T1 sequence (Q8RN04 whole entry): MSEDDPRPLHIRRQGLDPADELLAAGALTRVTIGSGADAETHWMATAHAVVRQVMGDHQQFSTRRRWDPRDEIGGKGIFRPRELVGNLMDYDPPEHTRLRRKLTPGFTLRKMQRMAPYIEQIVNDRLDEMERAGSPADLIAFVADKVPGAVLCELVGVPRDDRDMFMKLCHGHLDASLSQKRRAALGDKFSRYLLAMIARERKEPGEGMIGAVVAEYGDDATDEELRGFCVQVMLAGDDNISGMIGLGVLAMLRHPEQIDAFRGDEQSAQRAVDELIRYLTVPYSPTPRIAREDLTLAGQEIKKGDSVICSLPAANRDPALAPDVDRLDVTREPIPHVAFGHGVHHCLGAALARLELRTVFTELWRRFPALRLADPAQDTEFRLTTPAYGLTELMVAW
Assay: Binding affinity to Amycolatopsis orientalis OxyB

Structure (SMILES)	Kd [µM]
CN[C@H](CC(C)C)C(=O)N[C@H](Cc1ccc(O)cc1)C(=O)N[C@@H](CC(N)=O)C(=O)N[C@@H](C(=O)N[C@@H](C(=O)N[C@H](Cc1ccc(O)cc1)C(=O)O)c1ccc(O)cc1)c1ccc(O)cc1	35
CN[C@H](CC(C)C)C(=O)N[C@H](Cc1ccc(O)cc1)C(=O)N[C@@H](CC(N)=O)C(=O)N[C@@H](C(=O)N[C@@H](C(=O)N[C@@H](Cc1ccc(O)cc1)C(=O)O)c1ccc(O)cc1)c1ccc(O)cc1	17
